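All cell lines were grown in 96-well plates and treated with compound for 48 hours. Abbreviation: GI50, concentration required for 50% inhibition of growth.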 The source made the active and inactive calls. Rule as the data show it: active = GI50 up to about 1.1 µM and inactive = higher.
Assays:
Experiment in all cases: inhibition of tumour cell growth, NCI panel, 48 h
DU-145 = tested on: DU-145
HCT-116 = tested on: HCT-116
HL-60 = tested on: HL-60
M14 = tested on: M14
MCF7 = tested on: MCF7
MDA-MB-231 = tested on: MDA-MB-231
MDA-N = tested on: MDA-N
NCI-H522 = tested on: NCI-H522
NCI/ADR-RES = tested on: NCI/ADR-RES
OVCAR-4 = tested on: OVCAR-4
PC-3 = tested on: PC-3
SF-268 = tested on: SF-268
SF-539 = tested on: SF-539
SK-MEL-5 = tested on: SK-MEL-5
T47D = tested on: T47D
U-251 = tested on: U-251
UACC-257 = tested on: UACC-257
UO-31 = tested on: UO-31
Malme-3M = tested on: Malme-3M
SK-OV-3 = tested on: SK-OV-3

Measured: GI50

CN(C)CC[N+](C)(C)[BH2-]C(O)O
inactive: DU-145 > 100 µM | HCT-116 > 100 µM | HL-60 > 100 µM | M14 > 100 µM | MCF7 > 100 µM | MDA-MB-231 > 100 µM | MDA-N > 100 µM | NCI-H522 > 100 µM | NCI/ADR-RES > 100 µM | OVCAR-4 > 100 µM | PC-3 > 100 µM | SF-268 > 100 µM | SF-539 > 100 µM | SK-MEL-5 > 100 µM | T47D > 100 µM | U-251 > 100 µM | UACC-257 > 100 µM | UO-31 > 100 µM

COc1ccc2c(c1)/C(=C(\C(Cl)=C(Cl)Cl)[N+](=O)[O-])N2
inactive: DU-145 > 100 µM | HCT-116 > 100 µM | HL-60 > 100 µM | M14 > 100 µM | MCF7 > 100 µM | MDA-MB-231 > 100 µM | MDA-N 83.2 µM | Malme-3M 88.9 µM | NCI-H522 25.3 µM | NCI/ADR-RES 79.8 µM | OVCAR-4 49.1 µM | PC-3 72.1 µM | SF-268 70.3 µM | SK-MEL-5 41 µM | SK-OV-3 > 100 µM | T47D 67.3 µM | U-251 91.2 µM | UACC-257 > 100 µM | UO-31 > 100 µM

C=C(Cl)CN1c2ccccc2C=Cc2ccccc21
inactive: DU-145 29.7 µM | HCT-116 5.01 µM | M14 17 µM | MCF7 15.2 µM | MDA-MB-231 14.7 µM | MDA-N 15 µM | Malme-3M 27.5 µM | NCI-H522 21.6 µM | NCI/ADR-RES > 100 µM | OVCAR-4 21.3 µM | PC-3 9.12 µM | SF-268 15.7 µM | SF-539 18 µM | SK-MEL-5 7.23 µM | SK-OV-3 15.9 µM | T47D 16.9 µM | U-251 10.1 µM | UACC-257 16.3 µM | UO-31 31.6 µM

CC1=NN2CCC(=O)N=C2S1
inactive: DU-145 > 100 µM | HCT-116 > 100 µM | HL-60 > 100 µM | M14 > 100 µM | MCF7 > 100 µM | MDA-MB-231 > 100 µM | MDA-N > 100 µM | Malme-3M > 100 µM | NCI-H522 > 100 µM | NCI/ADR-RES > 100 µM | OVCAR-4 > 100 µM | PC-3 > 100 µM | SF-268 > 100 µM | SF-539 > 100 µM | SK-MEL-5 > 100 µM | SK-OV-3 > 100 µM | T47D > 100 µM | U-251 > 100 µM | UACC-257 > 100 µM

COc1ccc2c(c1)C1Oc3ccccc3CC1(O)CO2 (configuration not stated)
inactive: DU-145 > 100 µM | HCT-116 > 100 µM | M14 > 100 µM | MCF7 > 100 µM | MDA-MB-231 > 100 µM | MDA-N > 100 µM | Malme-3M > 100 µM | NCI-H522 > 100 µM | NCI/ADR-RES > 100 µM | OVCAR-4 > 100 µM | PC-3 > 100 µM | SF-268 > 100 µM | SF-539 > 100 µM | SK-MEL-5 > 100 µM | SK-OV-3 > 100 µM | T47D > 100 µM | U-251 > 100 µM | UACC-257 > 100 µM | UO-31 > 100 µM

O=C(NCc1ccccc1)c1cc2ccccc2o/c1=N\c1ccccc1F
inactive: DU-145 29.7 µM | HCT-116 23.4 µM | HL-60 > 100 µM | M14 34.4 µM | MCF7 33.7 µM | MDA-MB-231 17.6 µM | MDA-N 34.8 µM | Malme-3M 25.2 µM | NCI-H522 22 µM | NCI/ADR-RES 46.7 µM | OVCAR-4 13.5 µM | PC-3 33.5 µM | SF-268 30.8 µM | SK-MEL-5 19.1 µM | SK-OV-3 16.5 µM | T47D 16.6 µM | U-251 35.5 µM | UACC-257 34.4 µM | UO-31 8.39 µM

N#CC1C(=O)N(c2ccccc2)NC12OC(=O)c1ccncc12 (configuration not stated)
inactive: DU-145 > 20 µM | HCT-116 > 20 µM | HL-60 > 20 µM | M14 > 20 µM | MCF7 > 20 µM | MDA-MB-231 > 20 µM | MDA-N > 20 µM | Malme-3M > 20 µM | NCI-H522 > 20 µM | NCI/ADR-RES > 20 µM | OVCAR-4 > 20 µM | PC-3 > 20 µM | SF-539 > 20 µM | SK-MEL-5 > 20 µM | SK-OV-3 > 20 µM | T47D > 20 µM | U-251 > 20 µM | UACC-257 > 20 µM | UO-31 > 20 µM

CC(=O)OC1COC(n2nc(N)nc2C)C(OC(C)=O)C1OC(C)=O (configuration not stated)
inactive: DU-145 > 100 µM | HCT-116 > 100 µM | HL-60 > 100 µM | M14 > 100 µM | MCF7 > 100 µM | MDA-MB-231 > 100 µM | MDA-N > 100 µM | Malme-3M > 100 µM | NCI-H522 > 100 µM | NCI/ADR-RES > 100 µM | OVCAR-4 > 100 µM | PC-3 > 100 µM | SF-268 > 100 µM | SK-MEL-5 > 100 µM | SK-OV-3 > 100 µM | T47D > 100 µM | U-251 > 100 µM | UACC-257 > 100 µM | UO-31 > 100 µM

C=CCc1cccc2cc(C(=O)NCc3ccccc3)c(=N)oc12
inactive: DU-145 37.1 µM | HCT-116 24.2 µM | HL-60 25.3 µM | M14 40.6 µM | MCF7 47.8 µM | MDA-MB-231 30.6 µM | MDA-N 41.4 µM | Malme-3M 19.4 µM | NCI-H522 18.1 µM | NCI/ADR-RES 34.2 µM | OVCAR-4 41.4 µM | PC-3 18.6 µM | SF-268 36.1 µM | SF-539 47.5 µM | SK-MEL-5 25.5 µM | SK-OV-3 46.2 µM | T47D 24.5 µM | U-251 38.2 µM | UACC-257 89.3 µM

CN(C)c1c(Cl)c(=O)oc2c1ccc1nc(-c3ccccc3)sc12
inactive: DU-145 > 100 µM | HCT-116 > 100 µM | HL-60 > 100 µM | M14 > 100 µM | MCF7 57.7 µM | MDA-MB-231 > 100 µM | MDA-N > 100 µM | Malme-3M 31.5 µM | NCI-H522 > 100 µM | NCI/ADR-RES > 100 µM | OVCAR-4 > 100 µM | PC-3 > 100 µM | SF-268 > 100 µM | SF-539 > 100 µM | SK-MEL-5 > 100 µM | T47D > 100 µM | U-251 > 100 µM | UACC-257 > 100 µM | UO-31 > 100 µM

O=c1c2ccccc2c2c1c1c3ccccc3c(=O)c1c1c3ccccc3c(=O)c21
inactive: DU-145 > 100 µM | HCT-116 > 100 µM | HL-60 > 100 µM | M14 > 100 µM | MCF7 > 100 µM | MDA-MB-231 > 100 µM | MDA-N > 100 µM | Malme-3M > 100 µM | NCI-H522 > 100 µM | NCI/ADR-RES > 100 µM | PC-3 > 100 µM | SF-268 > 100 µM | SF-539 > 100 µM | SK-MEL-5 > 100 µM | SK-OV-3 > 100 µM | T47D > 100 µM | U-251 > 100 µM | UACC-257 > 100 µM | UO-31 > 100 µM

Cc1ncc(CSc2ccccc2N)c(CO)c1O
inactive: DU-145 > 100 µM | HCT-116 > 100 µM | M14 > 100 µM | MCF7 > 100 µM | MDA-MB-231 > 100 µM | MDA-N > 100 µM | Malme-3M > 100 µM | NCI-H522 > 100 µM | NCI/ADR-RES > 100 µM | OVCAR-4 > 100 µM | PC-3 > 100 µM | SF-268 > 100 µM | SF-539 > 100 µM | SK-MEL-5 > 100 µM | SK-OV-3 > 100 µM | T47D > 100 µM | U-251 > 100 µM | UACC-257 > 100 µM

CCOC(=O)N1CC2(C)C=CC1C(C(=O)OC)C2 (configuration not stated)
inactive: DU-145 > 100 µM | HCT-116 > 100 µM | HL-60 > 100 µM | M14 > 100 µM | MCF7 > 100 µM | MDA-MB-231 > 100 µM | MDA-N > 100 µM | Malme-3M > 100 µM | NCI-H522 > 100 µM | NCI/ADR-RES > 100 µM | OVCAR-4 > 100 µM | PC-3 > 100 µM | SF-268 > 100 µM | SK-MEL-5 > 100 µM | SK-OV-3 > 100 µM | T47D > 100 µM | U-251 > 100 µM | UACC-257 > 100 µM | UO-31 > 100 µM

O=C(CCc1cc(O)cc(O)c1)NCCc1cc(OCc2ccccc2)cc(OCc2ccccc2)c1
inactive: DU-145 15.8 µM | HCT-116 12.9 µM | HL-60 2.7 µM | M14 13.2 µM | MCF7 4.92 µM | MDA-MB-231 10.3 µM | MDA-N 13.7 µM | NCI-H522 11.9 µM | NCI/ADR-RES 17.8 µM | PC-3 8.89 µM | SF-268 15 µM | SF-539 16.2 µM | SK-MEL-5 10.6 µM | SK-OV-3 16.8 µM | T47D 11.2 µM | U-251 13 µM | UACC-257 23.6 µM | UO-31 3.55 µM

CC(C)[Si](OCC/C=C/C1CCC(=O)C1C(O)C1CCCCC1)(C(C)C)C(C)C (configuration not stated)
inactive: DU-145 16.4 µM | HCT-116 14.7 µM | M14 17.2 µM | MCF7 15.9 µM | MDA-MB-231 18.8 µM | MDA-N 19.2 µM | Malme-3M 14.8 µM | NCI-H522 12 µM | NCI/ADR-RES 13.9 µM | OVCAR-4 20.1 µM | PC-3 13.3 µM | SF-268 7.13 µM | SF-539 19.8 µM | SK-MEL-5 14.3 µM | SK-OV-3 15.7 µM | T47D 15 µM | U-251 15.8 µM | UACC-257 15.4 µM | UO-31 16.6 µM
